Source: ChEMBL document CHEMBL4382231, “Chemical preparation, biological evaluation and 3D-QSAR of ethoxysulfuron derivatives as novel antifungal agents targeting acetohydroxyacid synthase” (Eur J Med Chem, 2019)
In brackets after ≈: the same amount, converted by molar mass. Activity calls are given as the source filed them. No cut-off for these calls is given here.

Key:
[1] = system: Saccharomyces cerevisiae; experiment: Antifungal activity against Saccharomyces cerevisiae SC XH1549 cultured in YNB media after 48 hrs by broth microdilution method; assay type: functional
[2] = system: Candida albicans; experiment: Antifungal activity against fluconazole-resistant Candida albicans isolate g5 cultured in YNB media after 72 hrs by broth microdilution method; assay type: functional
[3] = system: Saccharomyces cerevisiae; experiment: Antifungal activity against Saccharomyces cerevisiae SC XH1549 cultured in YNB media after 72 hrs by broth microdilution method; assay type: functional
[4] = Inhibition of Candida albicans AHAS catalytic subunit using pyruvate as substrate measured after 30 mins by colorimetric method
[5] = system: Candida parapsilosis; experiment: Antifungal activity against Candida parapsilosis ATCC 22019 cultured in YNB media after 48 hrs by broth microdilution method; assay type: functional
[6] = system: Candida albicans; experiment: Antifungal activity against Candida albicans SC5314 cultured in YNB media after 72 hrs by broth microdilution method; assay type: functional
[7] = system: Candida parapsilosis; experiment: Antifungal activity against Candida parapsilosis ATCC 22019 cultured in YNB media after 72 hrs by broth microdilution method; assay type: functional
[8] = system: Candida albicans; experiment: Antifungal activity against fluconazole-resistant Candida albicans isolate 17 cultured in YNB media after 24 hrs by broth microdilution method; assay type: functional
[9] = system: Candida albicans; experiment: Antifungal activity against Candida albicans SC5314 cultured in YNB media after 48 hrs by broth microdilution method; assay type: functional
[10] = system: Candida albicans; experiment: Antifungal activity against fluconazole-resistant Candida albicans isolate g5 cultured in YNB media after 24 hrs by broth microdilution method; assay type: functional
[11] = system: Candida albicans; experiment: Antifungal activity against fluconazole-resistant Candida albicans isolate g5 cultured in YNB media after 48 hrs by broth microdilution method; assay type: functional
[12] = system: Candida parapsilosis; experiment: Antifungal activity against Candida parapsilosis ATCC 22019 cultured in YNB media after 24 hrs by broth microdilution method; assay type: functional; details: Lodderomyces parapsilosis, ATCC 22019, 24 h
[13] = system: Saccharomyces cerevisiae; experiment: Antifungal activity against Saccharomyces cerevisiae SC XH1549 cultured in YNB media after 24 hrs by broth microdilution method; assay type: functional; details: SC XH1549, 24 h
[14] = system: Candida albicans; experiment: Antifungal activity against fluconazole-resistant Candida albicans isolate 17 cultured in YNB media after 48 hrs by broth microdilution method; assay type: functional
[15] = system: Candida albicans; experiment: Antifungal activity against fluconazole-resistant Candida albicans isolate 17 cultured in YNB media after 72 hrs by broth microdilution method; assay type: functional
[16] = system: Candida albicans; experiment: Antifungal activity against Candida albicans SC5314 cultured in YNB media after 24 hrs by broth microdilution method; assay type: functional; details: SC5314, 24 h
[17] = system: Candida albicans; experiment: Ratio of MIC for Candida albicans SC5314 cultured in RPMI 1640 media to MIC for Candida albicans SC5314 cultured in YNB media; assay type: functional
[18] = system: Candida albicans; experiment: Antifungal activity against Candida albicans SC5314 cultured in RPMI 1640 media after 24 hrs by broth microdilution method; assay type: functional; details: SC5314, 24 h
[19] = system: Candida albicans; experiment: Antifungal activity against Candida albicans SC5314 infected in Caenorhabditis elegans assessed as mortality at 20 nM after 24 hrs by propidium iodide staining based fluorescence microscopic analysis (reference value: 17%); assay type: functional
[20] = Toxicity in topically applied rabbit; design: species or system Oryctolagus cuniculus; details: in vivo, topical or ocular
[21] = Toxicity in po dosed rat; assay type: organism-based; details: in vivo
[22] = Lodderomyces parapsilosis, ATCC 22019, 48 h
[23] = Lodderomyces parapsilosis, ATCC 22019, 72 h

CCOC(=O)c1ccccc1OS(=O)(=O)NC(=O)Nc1nc(OC)cc(OC)n1
MIC ([1]; SC XH1549, 48 h): 5 µg/mL (≈ 11.7 µM) | MIC ([2]; isolate g5, 72 h): 2.5 µg/mL (≈ 5.86 µM) | MIC ([3]; SC XH1549, 72 h): 5 µg/mL (≈ 11.7 µM) | Ki [4]: 6.3 nM | MIC [5, 22]: 2.5 µg/mL (≈ 5.86 µM) | MIC ([6]; SC5314, 72 h): 2.5 µg/mL (≈ 5.86 µM) | MIC [7, 23]: 2.5 µg/mL (≈ 5.86 µM) | MIC ([8]; isolate 17, 24 h): 2.5 µg/mL (≈ 5.86 µM) | MIC ([9]; SC5314, 48 h): 2.5 µg/mL (≈ 5.86 µM) | MIC ([10]; isolate g5, 24 h): 2.5 µg/mL (≈ 5.86 µM) | MIC ([11]; isolate g5, 48 h): 2.5 µg/mL (≈ 5.86 µM) | MIC [12]: 1.25 µg/mL (≈ 2.93 µM) | MIC [13]: 2.5 µg/mL (≈ 5.86 µM) | MIC ([14]; isolate 17, 48 h): 5 µg/mL (≈ 11.7 µM) | MIC ([15]; isolate 17, 72 h): 5 µg/mL (≈ 11.7 µM) | MIC [16]: 1.25 µg/mL (≈ 2.93 µM)

CCOC(=O)c1ccccc1OS(=O)(=O)[N-]C(=O)Nc1nc(OC)cc(OC)n1.[Na+]
MIC ([1]; SC XH1549, 48 h): 5 µg/mL | MIC ([2]; isolate g5, 72 h): 2.5 µg/mL | MIC ([3]; SC XH1549, 72 h): 5 µg/mL | Ki [4]: 6.7 nM | pKi [4]: 8.17 | MIC [5, 22]: 2.5 µg/mL | Ratio IC50 [17]: 20 | MIC ([6]; SC5314, 72 h): 2.5 µg/mL | MIC [7, 23]: 2.5 µg/mL | MIC ([8]; isolate 17, 24 h): 2.5 µg/mL | MIC ([9]; SC5314, 48 h): 2.5 µg/mL | MIC ([10]; isolate g5, 24 h): 2.5 µg/mL | MIC ([11]; isolate g5, 48 h): 2.5 µg/mL | MIC [12]: 1.25 µg/mL | MIC [18]: 25 µg/mL | MIC [13]: 2.5 µg/mL | MIC ([14]; isolate 17, 48 h): 5 µg/mL | MIC ([15]; isolate 17, 72 h): 5 µg/mL | MIC [16]: 1.25 µg/mL | Activity [19]: 7%

CCOc1ccccc1OS(=O)(=O)NC(=O)Nc1nc(OC)cc(OC)n1 [ETHOXYSULFURON]
MIC ([1]; SC XH1549, 48 h): 5 µg/mL (≈ 12.6 µM) | MIC ([2]; isolate g5, 72 h): 2.5 µg/mL (≈ 6.28 µM) | MIC ([3]; SC XH1549, 72 h): 5 µg/mL (≈ 12.6 µM) | Ki [4]: 21.6 nM | pKi [4]: 7.66 | MIC [5, 22]: 2.5 µg/mL (≈ 6.28 µM) | MIC ([6]; SC5314, 72 h): 1.25 µg/mL (≈ 3.14 µM) | MIC [7, 23]: 2.5 µg/mL (≈ 6.28 µM) | MIC ([8]; isolate 17, 24 h): 1.25 µg/mL (≈ 3.14 µM) | MIC ([9]; SC5314, 48 h): 1.25 µg/mL (≈ 3.14 µM) | MIC ([10]; isolate g5, 24 h): 1.25 µg/mL (≈ 3.14 µM) | MIC ([11]; isolate g5, 48 h): 1.25 µg/mL (≈ 3.14 µM) | MIC [12]: 1.25 µg/mL (≈ 3.14 µM) | MIC [18]: 12.5 µg/mL (≈ 31.4 µM) | MIC [13]: 5 µg/mL (≈ 12.6 µM) | MIC ([14]; isolate 17, 48 h): 2.5 µg/mL (≈ 6.28 µM) | MIC ([15]; isolate 17, 72 h): 2.5 µg/mL (≈ 6.28 µM) | MIC [16]: 0.625 µg/mL (≈ 1.57 µM) | Activity [19]: 3%

C[C@@H]1[C@H](O)[C@@H](C)/C=C/C=C/C=C/C=C/C=C/C=C/C=C/[C@H](O[C@@H]2O[C@H](C)[C@@H](O)[C@H](N)[C@@H]2O)C[C@@H]2O[C@](O)(C[C@@H](O)C[C@@H](O)[C@H](O)CC[C@@H](O)C[C@@H](O)CC(=O)O[C@H]1C)C[C@H](O)[C@H]2C(=O)O [AMPHOTERICIN B]
MIC ([1]; SC XH1549, 48 h): 2.5 µg/mL (≈ 2.71 µM) | MIC ([3]; SC XH1549, 72 h): 2.5 µg/mL (≈ 2.71 µM) | MIC [5, 22]: 2.5 µg/mL (≈ 2.71 µM) | MIC [7, 23]: 2.5 µg/mL (≈ 2.71 µM) | MIC [12]: 2.5 µg/mL (≈ 2.71 µM) | MIC [18]: 1.56 µg/mL (≈ 1.69 µM) | MIC [13]: 2.5 µg/mL (≈ 2.71 µM)

CCOc1ccccc1OS(=O)(=O)[N-]C(=O)Nc1nc(OC)cc(OC)n1.[Na+]
MIC ([1]; SC XH1549, 48 h): 5 µg/mL | MIC ([2]; isolate g5, 72 h): 2.5 µg/mL | MIC ([3]; SC XH1549, 72 h): 5 µg/mL | Ki [4]: 22.1 nM | MIC [5, 22]: 2.5 µg/mL | MIC ([6]; SC5314, 72 h): 1.25 µg/mL | MIC [7, 23]: 2.5 µg/mL | MIC ([8]; isolate 17, 24 h): 1.25 µg/mL | MIC ([9]; SC5314, 48 h): 1.25 µg/mL | MIC ([10]; isolate g5, 24 h): 1.25 µg/mL | MIC ([11]; isolate g5, 48 h): 1.25 µg/mL | MIC [12]: 1.25 µg/mL | MIC [13]: 5 µg/mL | MIC ([14]; isolate 17, 48 h): 2.5 µg/mL | MIC ([15]; isolate 17, 72 h): 2.5 µg/mL | MIC [16]: 0.625 µg/mL

CCOC(=O)c1ccccc1S(=O)(=O)NC(=O)Nc1nc(Cl)cc(OC)n1 [CHLORIMURON ETHYL]
LD50 [20]: > 2000 mg/kg | LD50 [21]: > 4000 mg/kg | Activity [19]: 8%

OC(Cn1cncn1)(Cn1cncn1)c1ccc(F)cc1F [FLUCONAZOLE]
MIC [1]: inactive | MIC [2]: inactive | MIC [3]: inactive | MIC [5]: inactive | MIC [6]: inactive | MIC [7]: inactive | MIC [8]: inactive | MIC [9]: inactive | MIC [10]: inactive | MIC [11]: inactive | MIC [12]: 0.25 µg/mL (≈ 0.816 µM) | MIC [18]: 0.25 µg/mL (≈ 0.816 µM) | MIC [13]: 0.25 µg/mL (≈ 0.816 µM) | MIC [14]: inactive | MIC [15]: inactive | MIC [16]: 0.25 µg/mL (≈ 0.816 µM) | Activity [19]: 5%

COc1cc(OC)nc(NC(=O)[N-]S(=O)(=O)Oc2ccccc2OCCI)n1.[Na+]
MIC ([1]; SC XH1549, 48 h): > 80 µg/mL | MIC ([2]; isolate g5, 72 h): 20 µg/mL | MIC ([3]; SC XH1549, 72 h): > 80 µg/mL | Ki [4]: 125 nM | pKi [4]: 6.9 | MIC [5, 22]: 20 µg/mL | Ratio IC50 [17]: 20 | MIC ([6]; SC5314, 72 h): 10 µg/mL | MIC [7, 23]: 20 µg/mL | MIC ([8]; isolate 17, 24 h): 5 µg/mL | MIC ([9]; SC5314, 48 h): 5 µg/mL | MIC ([10]; isolate g5, 24 h): 5 µg/mL | MIC ([11]; isolate g5, 48 h): 10 µg/mL | MIC [12]: 5 µg/mL | MIC [18]: 50 µg/mL | MIC [13]: 80 µg/mL | MIC ([14]; isolate 17, 48 h): 10 µg/mL | MIC ([15]; isolate 17, 72 h): 20 µg/mL | MIC [16]: 2.5 µg/mL

COc1cc(Cl)nc(NC(=O)[N-]S(=O)(=O)Oc2ccccc2OCCI)n1.[Na+]
Ki [4]: 583 nM | pKi [4]: 6.23 | MIC [18]: > 100 µg/mL | MIC [16]: > 100 µg/mL

COc1cc(Cl)nc(NC(=O)[N-]S(=O)(=O)Oc2ccc([N+](=O)[O-])cc2)n1.[Na+]
Ki [4]: 28000 nM | pKi [4]: 4.55 | MIC [18]: > 100 µg/mL | MIC [16]: > 100 µg/mL

COc1cc(Br)nc(NC(=O)[N-]S(=O)(=O)Oc2ccccc2[N+](=O)[O-])n1.[Na+]
Ki [4]: 247 nM | pKi [4]: 6.6 | MIC [18]: > 100 µg/mL | MIC [16]: > 100 µg/mL

Cc1cc(Cl)nc(NC(=O)[N-]S(=O)(=O)Oc2ccccc2OCCCl)n1.[Na+]
Ki [4]: 95 nM | pKi [4]: 7.02 | MIC [18]: > 100 µg/mL | MIC [16]: > 100 µg/mL

COc1cc(Br)nc(NC(=O)[N-]S(=O)(=O)Oc2ccccc2C(=O)OCCI)n1.[Na+]
Ki [4]: 980 nM | pKi [4]: 6.01 | MIC [18]: > 100 µg/mL | MIC [16]: > 100 µg/mL
